According to publication PMC3909264, “A Novel Acylaminoimidazole Derivative, WN1316, Alleviates Disease Progression via Suppression of Glial Inflammation in ALS Mouse Model” (PLoS ONE, 2014):
Counter-ions that a name gives are not always drawn. Like-named read-outs stand apart in the source and are kept apart here.

Experiments:
NAIP in THP-1 cells = test: Western blot of NAIP in THP-1 cells; type: cell-based, human; details: 1 to 16 µM, 24 h
Method: Human monocytic leukemia cell line THP-1 (ATCC, TIB-202) was cultured in RPMI-1640 (Wako) supplemented with 10% fetal bovine serum, 100 U/ml penicillin, and 100 µg/ml streptomycin at 37°C in 5% CO2. Approximately 1×10^5 cells, which were pretreated with 1 to 16 µM WN1316 or DMSO in the presence or absence of 1 mM NAC for 24 h, were plated on a 96-well plate and exposed to 80 µM menadione for 16 h. Cell viability was measured by AlamarBlue assay. For Western blotting, cell lysates were prepared by using M-PER mammalian protein extraction reagent (Thermo scientific) according to standard procedure.

[1] = system: differentiated SH-SY5Y cells; test: Anti-oxidative stress-induced neuronal cell death (AOND) analysis, AlamarBlue cell viability; type: cell-based, human
Method: Human neuroblastoma SH-SY5Y cells (ATCC, CRL-2266) were grown in Dulbecco’s modified Eagle’s medium (DMEM) supplemented with 10% fetal bovine serum (HyClone, Thermo Fisher Scientific Inc.), 100 U/ml penicillin, and 100 µg/ml streptomycin at 37°C in 5% CO2. For differentiation, SH-SY5Y cells were seeded at a density of 0.75×10^4 cells per well in 96-well plates (Primaria, BD Falcon) for 1 day, and cultured in the medium containing 10 µM all-trans retinoic acid for additional 5 days.
[…] Then, the cells were exposed to various concentrations of cytotoxins, including oxidative stressors [menadione, 10 to 80 µM for 4 to 6 h; α-naphthoquinone, 12.5 µM for 4 h; 6-hydroxydopamine (6-OHDA), 400 µM for 4 h], protein kinase inhibitor (staurosporine, 25 µM for 6 h) and phosphatase inhibitor (okadaic acid, 1 µM for 6 h), in fresh medium. Cell viability was measured by AlamarBlue assay (Invitrogen) as described previously.

[2] = Pharmacokinetics of WN-compounds in mice (brain and serum concentration, HPLC); type: in vivo, mouse (C57BL/6N); details: for Cmax: C57BL/6N mouse, oral 50 mg/kg body weight
Method: Wild type mice at 8 weeks (male, C57BL/6N) were used for the analysis of CPN-9, WN1303R, WN1312, WN1315 and WN1316 pharmacokinetics. CPN-9 was suspended in 0.5% carboxymethyl cellulose (CMC)-Na (carmellose sodium, Maruishi Pharmaceutical Co., Ltd.), while WN1303R, WN1312 and WN1316 were dissolved in Milli-Q purified water (MQ water) and WN1315 was dissolved in 0.25 N HCl. CPN-9 (100 mg/kg body weight) and the four WN-compounds (50 mg/kg body weight) were injected intragastrically (i.g.). After 15 min, 30 min, 1 h, 2 h, 4 h, 6 h, and 8 h, blood was collected from heart of each mouse anesthetized with 2% isoflurane by inhalation or 4% halothane in a mixture of N2O/O2 (70∶30). Mice were thereafter perfused transcardially with physiological saline containing 10% heparin under anesthesia, and the whole brain was removed. Each blood sample was centrifuged at 1,000×g for 10 min at 4°C, and the serum fraction was collected. The brain was frozen in liquid nitrogen, and was cryopreserved until use.
We mixed serum with deproteinization buffer (0.05 M H2SO4, 2.5 M K2CO3, and […]), and collected the organic layer after centrifugation at 1,500×g for 10 min. The organic layer was mixed with 0.05 M H2SO4, and then, after centrifugation at 1,500×g for 10 min, the water layer was collected. After the addition of methanol, each serum derived sample was subjected to HPLC.
Mouse whole brain was homogenized with acetonitrile and left at −80°C for 10 min. The supernatant was collected after centrifugation at 10,000×g for 10 min at 4°C and was dried under vacuum. The dried sample was re-dissolved in methanol and mixed with two volumes of 10 mM phosphate buffer (pH7.0), after which the supernatant was collected by centrifugation at 10,000×g for 10 min at 4°C and then left at −80°C for 10 min. To further remove debris, the supernatant was filtered (0.45 µm filter), centrifuged (at 10,000×g for 10 min at 4°C), filtered (0.22 µm filter) and finally centrifuged again. Each sample solution from brain was subjected to HPLC.
The concentrations of CPN-9 and WN1316 in the serum and brain samples were determined by HPLC on a CAPCELL PAK C18 column (SHISEIDO) with 50% acetonitrile (CPN-9), 40% acetonitrile (WN1316) or 45% acetonitrile (WN1303R, WN1312, and WN1315) in 10 mM phosphate buffer (pH 7.0).

[3] = Complexing with protein in human serum; type: in vitro ADME; details: human sera, unpublished data
[4] = Water solubility (stated property); type: physicochemical

## Cc1cc(C)c(N(C)CC(=O)Nc2nc(-c3ccccn3)c[nH]2)c(C)c1 [WN1316, 2-[mesityl(methyl)amino]-N-[4-(pyridin-2-yl)-1H-imidazol-2-yl] acetamide trihydrochloride]
NAIP in THP-1 cells
  NAIP protein level: dose-dependent upregulation
[1]; 6 µM WN1316, then 60 µM menadione 4 h
  pre-treatment time required for AOND activity: > 8 h
[1]; 8 h treatment, then 60 µM menadione 4 h
  concentration that militates against cytoprotection: > 20 µM
[1]; compound 24 h, then 60 µM menadione 4 h, compared with mother compound CPN-9
  cytoprotection against oxidative stress-induced cell death: marked cytoprotection
[1]; menadione, α-naphthoquinone, 6-OHDA vs staurosporine, okadaic acid, 8 h pretreatment
  selectivity of protection against various cytotoxins: greatest protection against oxidative stress-induced damage
[2]; C57BL/6N mice, intragastric, 50 mg/kg, n = 4, mean ± SD
  AUC0–8: Brain: 38.9±5.7 µg⋅h/g
[2]; WN1316 50 mg/kg vs CPN-9 100 mg/kg
  brain AUC0–8 relative to the level observed with CPN-9: about 39 fold
[2]; male, brain, read-out: Cmax in brain
  Cmax: 42.1 µM
[2]; male, mouse, brain / serum, oral 50 mg/kg, C57BL/6N, read-out: brain AUC0–8 relative to serum levels
  Kp: ~4
[2]; male, mouse, serum, po, C57BL/6N mice, intragastric, 50 mg/kg, n = 4, mean ± SD, read-out: AUC0–8: Serum
  AUC(0-t): 13600 ± 700 ng·h/mL
[2]; male, serum, read-out: Cmax in blood
  Cmax: 9.78 µM
[2]; mouse, in vivo
  BBB permeability (in words): prominent BBB permeability
[2]; oral 50 mg/kg, C57BL/6N
  clearance in both brain and serum: 8 h
[3]
  protein complexing in serum: complexes with protein
[4]
  water solubility (in words): highly soluble in water
